Measurements from patent publication US12516058B2, “Small-molecule compounds for controlling endosomal toll-like receptors and therapeutic agent for autoimmune diseases using same” (priority 2020, dated 2026).
Entries after “also recorded” stand apart in the source; their conditions may differ.

How the values were obtained:
TLR8 = molecular target: T1, TLR8 (Homo sapiens, UniProt Q9NR97); experiment: TNF-α secretion ELISA after TLR8 agonist TL8-506 in PMA-differentiated THP-1 cells; assay type: cell-based; conditions: SK01, TL8-506 4 h
T1 construct: endogenous in cells; host or cells: THP-1 (PMA-differentiated)
T1 sequence (Q9NR97 27-1041): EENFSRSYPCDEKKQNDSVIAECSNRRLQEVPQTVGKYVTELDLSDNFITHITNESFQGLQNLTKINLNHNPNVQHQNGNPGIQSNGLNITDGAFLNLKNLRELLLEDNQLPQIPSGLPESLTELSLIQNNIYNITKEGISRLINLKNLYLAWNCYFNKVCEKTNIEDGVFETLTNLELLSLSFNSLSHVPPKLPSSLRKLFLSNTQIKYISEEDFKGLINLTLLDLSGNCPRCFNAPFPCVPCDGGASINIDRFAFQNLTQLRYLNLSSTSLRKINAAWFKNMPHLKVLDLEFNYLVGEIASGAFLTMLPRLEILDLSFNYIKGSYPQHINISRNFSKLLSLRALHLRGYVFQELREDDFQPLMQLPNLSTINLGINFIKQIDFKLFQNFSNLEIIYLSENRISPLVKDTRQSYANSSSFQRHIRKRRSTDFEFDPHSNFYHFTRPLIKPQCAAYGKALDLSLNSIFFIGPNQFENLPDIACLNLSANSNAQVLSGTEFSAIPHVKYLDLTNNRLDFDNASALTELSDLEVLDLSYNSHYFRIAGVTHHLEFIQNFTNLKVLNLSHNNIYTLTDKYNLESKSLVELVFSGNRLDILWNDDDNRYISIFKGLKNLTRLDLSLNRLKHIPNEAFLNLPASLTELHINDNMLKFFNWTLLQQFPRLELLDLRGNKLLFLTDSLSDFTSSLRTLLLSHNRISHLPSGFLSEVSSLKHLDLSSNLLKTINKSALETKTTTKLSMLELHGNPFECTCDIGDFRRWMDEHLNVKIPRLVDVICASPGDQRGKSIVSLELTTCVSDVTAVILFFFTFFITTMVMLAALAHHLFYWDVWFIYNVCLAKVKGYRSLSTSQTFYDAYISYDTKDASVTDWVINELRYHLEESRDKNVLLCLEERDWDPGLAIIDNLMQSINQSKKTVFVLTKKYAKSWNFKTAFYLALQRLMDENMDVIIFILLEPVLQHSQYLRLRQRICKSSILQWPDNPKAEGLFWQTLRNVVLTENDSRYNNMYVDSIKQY
Method: FIGS. 5A to 5C show the inhibitory activities of SK01 on TLRs (TLR1/2, TLR2/6 and TLR4) exposed to the cell surface, and FIGS. 5D to 5G show the inhibitory activities of SK01 against endosome TLRs (TLR3, TLR7, TLR8 and TLR9), wherein RAW 264.7 cells were treated at predetermined concentrations with a negative control, a positive control (only ligand), additional positive control (ligand and 0.25% DMSO), or SK01 for 1 hour, and then stimulated with TLR-specific agonists for 4 or 24 hours (TLR3 only), a human monocytic cell line (THP-1) was used for TLR8 and THP-1 cells were treated with phorbol 12-myristate 13-acetate for 48 hours to induce cell differentiation, then treated with SK01 for 1 hour, and was treated with the TLR8 agonist TL8-506 for 4 hours, and the level of TNF-α secretion was measured by ELISA.

TLR5 = molecular target: T2, TLR5 (Homo sapiens, UniProt O60602); experiment: TNF-α secretion ELISA after FLA-ST in differentiated THP-1 cells; assay type: cell-based
T2 construct: endogenous in cells; host or cells: THP-1 (differentiated)
Method: In order to determine the inhibitory activity of the test-ligand against TLR5, differentiated THP-1 cells were pretreated with each compound for 1 hour and then treated with FLA-ST ([…] flagellar protein, TLR5, Invitrogen) for 4 hours. After activation of the TLRs, the supernatant was diluted and transferred to a pre-coated 96-well assay plate, and the level of human TNF-alpha secretion was measured in accordance with the manufacturer's instructions using the human TNF-alpha ELISA-kit (Invitrogen).
In order to determine the inhibitory activities of SK41, SK50, SK58 and SK64 on various TLR signaling pathways, RAW 264.7 cells were cultured along with each compound and then stimulated with different TLR agonists. The TLR agonists used herein were Pam3CSK4 (TLR1/2), FSL-1 (TLR2/6), LPS (TLR4) and FLA-ST (TLR5) as cell surface TLRs, and poly I:C (TLR3) and TL8-506 (TLR8) as endosomal TLRs.

RAW 264.7 cells = experiment: MTT cytotoxicity (LC50) and therapeutic index analysis; assay type: cell-based, mouse; conditions: 24 h, among the 13 selected compounds
Method: RAW 264.7 cells were seeded at a density of 2×10^4 cells/well in a 96-well cell culture plate and stabilized overnight in a humidified incubator. Each well was treated with a test compound or negative control (dimethyl sulfoxide; DMSO). The plates were allowed to stand in an incubator for 24 hours. Then, the medium of the 96-well culture dish was discarded and 500 μg/ml MTT solution (InvivoGen Ltd.) was added to each well. After incubation for 3 hours, the solution was removed and the residue was incubated in DMSO (Biosesang Co. Ltd., Korea) for 30 minutes to completely dissolve the formazan dye. The absorbance was measured at a wavelength of 595 nm with a microplate colorimetric reader and normalized based on the untreated control. All cultures were performed under the same conditions as in the cell culture described above.
In order to plot the concentration-dependent LC50 curves, treatment with the SK series ligands at different concentrations up to 200 μM (the highest concentration that could be treated within the level of 0.5% DMSO) was performed. Then, cell viability and toxicity response upon treatment with ligands were analyzed by MTT as described in Examples 1-3. Cell viability in each plot was normalized from negative control (100%; no treatment) to positive control (highest concentration of test-ligand), and LC50 was determined by non-linear regression (Graph Pad Prism 7.0). In order to plot the concentration-dependent IC50 curves, pre-treatment with the SK series ligands was performed at different concentrations up to 50 μM (twice the initial concentration). Cell responses mediated by TLR7 and TLR9 (levels of TNF-α secretion) were analyzed by ELISA as described in Examples 1-4. The cytokine level in each plot was normalized from negative control (non-treated) to positive control (treatment with ligand), and IC50 was determined by non-linear regression (Graph Pad Prism 7.0).
Then, LC50 and IC50 were applied to the following function to calculate TI.

T2 sequence (O60602 21-858): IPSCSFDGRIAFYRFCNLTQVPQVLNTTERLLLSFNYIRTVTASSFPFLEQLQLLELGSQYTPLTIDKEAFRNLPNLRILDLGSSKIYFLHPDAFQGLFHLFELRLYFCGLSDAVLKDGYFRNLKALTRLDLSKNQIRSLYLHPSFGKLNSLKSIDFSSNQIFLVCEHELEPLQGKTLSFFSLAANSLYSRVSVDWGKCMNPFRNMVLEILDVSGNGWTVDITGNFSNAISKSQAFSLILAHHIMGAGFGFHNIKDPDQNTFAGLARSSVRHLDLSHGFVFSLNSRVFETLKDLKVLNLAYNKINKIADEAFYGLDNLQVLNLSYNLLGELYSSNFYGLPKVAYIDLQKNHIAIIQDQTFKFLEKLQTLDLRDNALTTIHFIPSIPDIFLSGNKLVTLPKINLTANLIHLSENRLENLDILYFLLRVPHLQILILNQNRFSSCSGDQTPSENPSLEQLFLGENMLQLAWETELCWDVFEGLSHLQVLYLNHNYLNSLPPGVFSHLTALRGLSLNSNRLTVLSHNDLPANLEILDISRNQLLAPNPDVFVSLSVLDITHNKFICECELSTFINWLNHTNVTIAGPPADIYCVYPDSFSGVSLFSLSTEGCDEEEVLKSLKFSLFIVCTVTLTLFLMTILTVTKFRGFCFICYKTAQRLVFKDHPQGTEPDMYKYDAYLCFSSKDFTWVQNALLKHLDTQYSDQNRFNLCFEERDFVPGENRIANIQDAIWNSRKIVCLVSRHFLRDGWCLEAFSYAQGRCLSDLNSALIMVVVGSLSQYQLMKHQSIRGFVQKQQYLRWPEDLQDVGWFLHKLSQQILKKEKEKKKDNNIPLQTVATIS

Row | Structure (SMILES) | activity against TLR8 (TLR8) | inhibitory activity against cell surface TLR5 (TNF-α secretion) (TLR5) | toxicity (LC50) (RAW 264.7 cells)
1 | Cc1c(C)n(CCN(C)C)c2nc3c(c(N)c12)CCCCC3 [SK01, 1-(2-(dimethylamino)ethyl)-2,3-dimethyl-1,5,6,7,8,9-hexahydrocyclohepta[b]pyrrolo[3,2-e]pyridin-4-amine] | no activity |  | 
2 | Cc1cc2c(N)c3c(nc2n1CCCN(C)C)CCCCCC3 [SK41, 1-(3-(dimethylamino)propyl)-2-methyl-5,6,7,8,9,10-hexahydro-1H-cycloocta[b]pyrrolo[3,2-e]pyridin-4-amine] |  | did not exhibit a specific inhibitory activity; also recorded: no inhibitory activities | lower toxicity
3 | COc1ccc2c(c1)c1c(N)c3c(nc1n2CCCN(C)C)CCCC3 [SK50, 6-(3-(dimethylamino)propyl)-9-methoxy-2,3,4,6-tetrahydro-1H-indolo[2,3-b]quinolin-11-amine] |  | did not exhibit a specific inhibitory activity; also recorded: no inhibitory activities | lower toxicity
4 | Cc1ccc2c(c1)c1c(N)c3c(nc1n2CCCN(C)C)CCCC3 [SK58, 6-(3-(dimethylamino)propyl)-9-methyl-2,3,4,6-tetrahydro-1H-indolo[2,3-b]quinolin-11-amine] |  | did not exhibit a specific inhibitory activity; also recorded: no inhibitory activities | lower toxicity
5 | COC(=O)c1ccc2c(c1)c1c(N)c3c(nc1n2CCCN(C)C)CCCC3 [SK64, Methyl 11-amino-6-(3-(dimethylamino)propyl)-2,3,4,6-tetrahydro-1H-indolo[2,3-b]quinolin-9-carboxylate] |  | did not exhibit a specific inhibitory activity; also recorded: no inhibitory activities | lower toxicity
